Source: PubChem BioAssay (NCI)
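Values below derive from 48-hour exposures of cells grown in 96-well plates, with endpoints linearly interpolated between the two concentrations bracketing the appropriate inhibition level. Here, GI50 denotes the concentration required for 50% inhibition of growth. TGI is the concentration that stops growth completely.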

Assays:
Experiment in all cases: growth of human tumour cells (NCI), 48 h
BT-549 breast = tested on: BT-549 breast
CCRF-CEM leukemia = tested on: CCRF-CEM leukemia
HOP-62 NSCLC = tested on: HOP-62 NSCLC
HS 578T breast = tested on: HS 578T breast
MDA-MB-231 breast = tested on: MDA-MB-231 breast
OVCAR-4 ovarian = tested on: OVCAR-4 ovarian
RPMI-8226 leukemia = tested on: RPMI-8226 leukemia
RXF 393 renal = tested on: RXF 393 renal
SW-620 colon = tested on: SW-620 colon
A498 renal = tested on: A498 renal

SMILES	TGI (BT-549 breast)	TGI (CCRF-CEM leukemia)	TGI (HOP-62 NSCLC)	TGI (HS 578T breast)	TGI (MDA-MB-231 breast)	TGI (OVCAR-4 ovarian)	TGI (RPMI-8226 leukemia)	TGI (RXF 393 renal)	TGI (SW-620 colon)	TGI (A498 renal)	GI50 (CCRF-CEM leukemia)	GI50 (SW-620 colon)
Nc1ccc(S(=O)(=O)Nc2nc3ccccc3nc2N2CCCCCC2)cc1	28.2 µM	> 100 µM	52.6 µM	> 100 µM	> 100 µM	50.9 µM	42.5 µM	35.5 µM	54.1 µM	–	–	–
CN(C)/N=N/c1nc2c(c(=O)n(C)c(=O)n2C)n1CC(O)CO (configuration not stated)	> 100 µM	> 100 µM	> 100 µM	> 100 µM	> 100 µM	> 100 µM	> 100 µM	> 100 µM	> 100 µM	–	–	–
O=C(Cc1ccc(Cl)c(Cl)c1)NCC1(N2CCCCC2)CCCCC1	> 100 µM	> 100 µM	> 100 µM	> 100 µM	> 100 µM	> 100 µM	> 100 µM	53 µM	> 100 µM	> 100 µM	–	–
O=C1CC(=O)n2cnc3cccc(c32)N1	> 100 µM	> 100 µM	> 100 µM	> 100 µM	> 100 µM	> 100 µM	> 100 µM	> 100 µM	> 100 µM	> 100 µM	–	–
NCC(O)CSCc1ccc(Cl)cc1 (configuration not stated)	> 100 µM	> 100 µM	> 100 µM	> 100 µM	> 100 µM	> 100 µM	> 100 µM	> 100 µM	> 100 µM	> 100 µM	–	–
O=[N+]([O-])c1cccc(N=Nc2c(O)c(S(=O)(=O)O)cc3cc(S(=O)(=O)O)ccc23)c1	> 100 µM	> 100 µM	> 100 µM	> 100 µM	> 100 µM	> 100 µM	–	> 100 µM	> 100 µM	> 100 µM	–	–
CN(C)CCn1c(CO)nc2c1c(=O)n(C)c(=O)n2C	> 100 µM	> 100 µM	> 100 µM	> 100 µM	> 100 µM	> 100 µM	> 100 µM	> 100 µM	> 100 µM	> 100 µM	–	–
C#CCn1c(=O)c(C)cn(/C(=C\C(=O)OCC)C(=O)OCC)c1=O	22.8 µM	8 µM	39.2 µM	62 µM	31.2 µM	6.35 µM	> 23.2 µM	4.49 µM	> 100 µM	40.8 µM	0.7 µM	2.14 µM
CN1C(=O)C(O)C[C@@H]1c1ccccc1 (some centres not stated)	> 100 µM	> 100 µM	> 100 µM	> 100 µM	> 100 µM	> 100 µM	> 100 µM	> 100 µM	> 100 µM	–	–	–
CC(Oc1ccccc1Cl)C(=O)NN1C(=O)CSC1c1ccccc1 (configuration not stated)	> 100 µM	> 100 µM	> 100 µM	> 100 µM	> 100 µM	> 100 µM	> 100 µM	> 100 µM	> 100 µM	> 100 µM	–	–
CC(C)C(C/C=C1\CC(CO)(COC(=O)C2CCCCC2)OC1=O)C(C)C (configuration not stated)	47.2 µM	43 µM	27.5 µM	31.8 µM	36.1 µM	36 µM	–	35.4 µM	40.5 µM	> 100 µM	–	–
O=C(c1cccs1)N1CCN(C(=O)c2cccs2)C1=S	14.9 µM	6.87 µM	18.8 µM	> 100 µM	18.1 µM	32.3 µM	> 19.7 µM	10.5 µM	24.6 µM	32.1 µM	–	–
Cc1ccc(S(=O)(=O)Nn2c(O)c(C#N)c(-c3ccc(Cl)cc3)c(C#N)c2=O)cc1	> 100 µM	> 100 µM	> 100 µM	> 100 µM	> 100 µM	> 100 µM	> 100 µM	> 100 µM	> 100 µM	> 100 µM	–	–
Cc1cc(C)c2c(c1)C(=O)/C(=C/c1ccccc1C(=O)O)C2	> 100 µM	> 100 µM	> 100 µM	> 100 µM	> 100 µM	> 100 µM	> 100 µM	> 100 µM	> 100 µM	> 100 µM	–	–
O=C(N/N=C/C=C/c1ccccc1)c1ccccc1Nc1ccccc1C(=O)N/N=C/C=C/c1ccccc1	> 100 µM	> 100 µM	70.4 µM	> 100 µM	> 100 µM	> 100 µM	> 100 µM	> 100 µM	> 100 µM	> 100 µM	–	–
